Measured values taken from patent US20170190705A1, “Compositions and Methods for Inhibiting BMP” (THE BRIGHAM AND WOMAN'S HOSPITAL, INC., priority 2014, published 2017).

How the values were obtained:
Type in all cases: biochemical
TBK1 = target: T1, TBK1 (Homo sapiens, UniProt Q9UHD2); test: Kinome profiling TBK1; conditions: read-out: Inhibitory activity TBK1; for inhibition at 0.1 µM: 100 nM
T1 sequence (Q9UHD2 1-729): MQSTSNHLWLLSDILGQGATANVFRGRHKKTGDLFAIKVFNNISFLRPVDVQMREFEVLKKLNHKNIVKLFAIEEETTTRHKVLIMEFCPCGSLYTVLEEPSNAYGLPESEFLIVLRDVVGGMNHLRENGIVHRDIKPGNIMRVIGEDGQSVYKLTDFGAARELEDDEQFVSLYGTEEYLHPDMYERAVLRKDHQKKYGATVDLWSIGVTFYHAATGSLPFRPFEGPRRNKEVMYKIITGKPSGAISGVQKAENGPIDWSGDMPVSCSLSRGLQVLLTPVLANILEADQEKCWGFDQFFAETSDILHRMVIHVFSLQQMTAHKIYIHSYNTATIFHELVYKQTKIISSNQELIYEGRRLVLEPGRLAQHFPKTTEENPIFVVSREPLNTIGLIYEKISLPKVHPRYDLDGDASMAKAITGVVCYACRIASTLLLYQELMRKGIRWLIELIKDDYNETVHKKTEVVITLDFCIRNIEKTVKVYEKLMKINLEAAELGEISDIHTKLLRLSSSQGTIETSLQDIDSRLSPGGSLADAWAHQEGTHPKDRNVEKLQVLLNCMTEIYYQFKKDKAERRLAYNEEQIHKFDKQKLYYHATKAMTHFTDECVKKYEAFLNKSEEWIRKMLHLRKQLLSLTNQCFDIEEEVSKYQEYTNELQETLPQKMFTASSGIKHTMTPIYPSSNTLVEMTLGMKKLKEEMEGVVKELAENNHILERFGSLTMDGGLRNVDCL
Protocol: (§1) . The kinome-wide selectivity was determined following the methods previously reported by Mohedas et al., ACS Chem Biol 2013, 8, 1291-1302 and Sanvitale et al., PLoS One 2013, 8, e62721.

NEK6 = NEK6 (Homo sapiens, UniProt Q9HC98); test: Kinome profiling NEK6; conditions: read-out: Inhibitory activity NEK6; for inhibition at 0.1 µM: 100 nM
Sequence of NEK6 (Q9HC98 whole entry): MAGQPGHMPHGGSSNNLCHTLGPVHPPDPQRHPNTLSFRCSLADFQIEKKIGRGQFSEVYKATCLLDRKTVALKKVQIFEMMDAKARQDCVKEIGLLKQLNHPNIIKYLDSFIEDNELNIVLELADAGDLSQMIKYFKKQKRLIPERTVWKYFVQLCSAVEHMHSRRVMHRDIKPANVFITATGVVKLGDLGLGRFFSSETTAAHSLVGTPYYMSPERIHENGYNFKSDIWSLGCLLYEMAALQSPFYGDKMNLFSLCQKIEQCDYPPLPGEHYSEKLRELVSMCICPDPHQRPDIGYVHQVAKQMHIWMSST
Protocol: as §1

PKC-1 = target: T2, PKC-1 (Homo sapiens, UniProt P41743); test: Kinome profiling PKC-1; conditions: read-out: Inhibitory activity PKC-1; for inhibition at 0.1 µM: 100 nM
T2 sequence (P41743 2-596 limits assumed): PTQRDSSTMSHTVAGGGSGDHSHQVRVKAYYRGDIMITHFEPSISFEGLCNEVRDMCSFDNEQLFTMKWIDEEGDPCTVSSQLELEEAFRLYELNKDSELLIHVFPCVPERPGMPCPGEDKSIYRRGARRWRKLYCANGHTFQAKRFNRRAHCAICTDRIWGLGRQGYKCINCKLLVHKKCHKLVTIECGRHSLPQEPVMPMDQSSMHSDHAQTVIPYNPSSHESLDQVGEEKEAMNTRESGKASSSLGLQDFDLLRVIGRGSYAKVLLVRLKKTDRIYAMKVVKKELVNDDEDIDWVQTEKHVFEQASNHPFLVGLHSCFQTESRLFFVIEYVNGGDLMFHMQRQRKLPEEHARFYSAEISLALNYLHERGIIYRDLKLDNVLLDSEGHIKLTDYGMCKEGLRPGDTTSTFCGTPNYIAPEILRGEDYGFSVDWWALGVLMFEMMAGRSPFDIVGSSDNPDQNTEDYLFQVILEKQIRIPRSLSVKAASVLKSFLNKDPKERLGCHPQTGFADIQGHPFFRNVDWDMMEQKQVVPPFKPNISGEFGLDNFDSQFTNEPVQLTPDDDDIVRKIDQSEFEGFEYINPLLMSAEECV
Protocol: as §1

MAPKAPK3 = MAPKAPK3 (Homo sapiens, UniProt Q16644); test: Kinome profiling MAPKAPK3; conditions: read-out: Inhibitory activity MAPKAPK3; for inhibition at 0.1 µM: 100 nM
Sequence of MAPKAPK3 (Q16644 whole entry): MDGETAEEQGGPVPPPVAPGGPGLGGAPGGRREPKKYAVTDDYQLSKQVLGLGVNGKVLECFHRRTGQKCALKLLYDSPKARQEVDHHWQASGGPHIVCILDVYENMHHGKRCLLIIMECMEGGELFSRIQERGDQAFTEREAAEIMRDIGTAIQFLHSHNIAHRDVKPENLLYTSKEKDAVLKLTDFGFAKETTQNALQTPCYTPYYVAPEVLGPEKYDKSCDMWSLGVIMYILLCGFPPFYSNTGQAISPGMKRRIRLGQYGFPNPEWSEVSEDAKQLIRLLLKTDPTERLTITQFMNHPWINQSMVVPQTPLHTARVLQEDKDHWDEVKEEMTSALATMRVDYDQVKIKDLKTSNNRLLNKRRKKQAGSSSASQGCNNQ
Protocol: as §1

MSK1 = MSK1 (Homo sapiens, UniProt O75582); test: Kinome profiling MSK1; conditions: read-out: Inhibitory activity MSK1; for inhibition at 0.1 µM: 100 nM
Sequence of MSK1 (O75582 whole entry): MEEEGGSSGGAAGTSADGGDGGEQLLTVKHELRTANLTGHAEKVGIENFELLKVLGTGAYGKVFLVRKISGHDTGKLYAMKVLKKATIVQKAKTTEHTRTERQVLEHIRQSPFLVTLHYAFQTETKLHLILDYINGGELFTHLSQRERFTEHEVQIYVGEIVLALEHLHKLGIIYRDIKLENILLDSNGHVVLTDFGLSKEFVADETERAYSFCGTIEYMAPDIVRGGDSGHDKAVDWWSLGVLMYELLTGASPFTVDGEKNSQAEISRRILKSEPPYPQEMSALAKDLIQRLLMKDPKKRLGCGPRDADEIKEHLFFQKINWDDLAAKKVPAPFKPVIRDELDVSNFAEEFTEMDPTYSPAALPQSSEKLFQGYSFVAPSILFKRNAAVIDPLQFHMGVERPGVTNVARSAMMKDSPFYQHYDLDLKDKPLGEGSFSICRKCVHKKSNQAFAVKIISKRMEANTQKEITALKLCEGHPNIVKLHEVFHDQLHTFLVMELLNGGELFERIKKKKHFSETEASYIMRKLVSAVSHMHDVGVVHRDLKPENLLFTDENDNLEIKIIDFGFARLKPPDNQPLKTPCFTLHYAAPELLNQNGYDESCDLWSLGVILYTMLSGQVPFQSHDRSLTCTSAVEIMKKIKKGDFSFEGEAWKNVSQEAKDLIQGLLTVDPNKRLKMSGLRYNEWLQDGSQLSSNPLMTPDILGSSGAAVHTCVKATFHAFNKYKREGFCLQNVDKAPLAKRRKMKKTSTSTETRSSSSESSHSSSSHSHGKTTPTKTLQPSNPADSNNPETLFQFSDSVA
Protocol: as §1

CAMK2δ = CAMK2δ (Homo sapiens, UniProt Q13557); test: Kinome profiling CAMK2δ; conditions: read-out: Inhibitory activity CAMK2δ; for inhibition at 0.1 µM: 100 nM
Sequence of CAMK2δ (Q13557 whole entry): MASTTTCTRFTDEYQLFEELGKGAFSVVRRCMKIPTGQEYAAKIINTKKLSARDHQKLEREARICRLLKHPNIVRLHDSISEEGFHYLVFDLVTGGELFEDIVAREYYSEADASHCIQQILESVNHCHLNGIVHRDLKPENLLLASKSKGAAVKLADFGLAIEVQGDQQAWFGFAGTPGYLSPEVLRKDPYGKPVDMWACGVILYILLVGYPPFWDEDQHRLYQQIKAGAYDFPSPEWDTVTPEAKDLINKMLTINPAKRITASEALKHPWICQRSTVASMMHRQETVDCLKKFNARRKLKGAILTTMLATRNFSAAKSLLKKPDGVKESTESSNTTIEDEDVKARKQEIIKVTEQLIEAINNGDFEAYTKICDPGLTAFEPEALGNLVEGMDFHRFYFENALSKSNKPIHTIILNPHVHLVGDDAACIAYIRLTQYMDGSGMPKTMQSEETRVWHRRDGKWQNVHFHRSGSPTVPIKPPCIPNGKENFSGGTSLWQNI
Protocol: as §1

IGF1R = IGF1R (Homo sapiens, UniProt P08069); test: Kinome profiling IGF1R; conditions: read-out: Inhibitory activity IGF1R; for inhibition at 0.1 µM: 100 nM
Sequence of IGF1R (P08069 31-1367): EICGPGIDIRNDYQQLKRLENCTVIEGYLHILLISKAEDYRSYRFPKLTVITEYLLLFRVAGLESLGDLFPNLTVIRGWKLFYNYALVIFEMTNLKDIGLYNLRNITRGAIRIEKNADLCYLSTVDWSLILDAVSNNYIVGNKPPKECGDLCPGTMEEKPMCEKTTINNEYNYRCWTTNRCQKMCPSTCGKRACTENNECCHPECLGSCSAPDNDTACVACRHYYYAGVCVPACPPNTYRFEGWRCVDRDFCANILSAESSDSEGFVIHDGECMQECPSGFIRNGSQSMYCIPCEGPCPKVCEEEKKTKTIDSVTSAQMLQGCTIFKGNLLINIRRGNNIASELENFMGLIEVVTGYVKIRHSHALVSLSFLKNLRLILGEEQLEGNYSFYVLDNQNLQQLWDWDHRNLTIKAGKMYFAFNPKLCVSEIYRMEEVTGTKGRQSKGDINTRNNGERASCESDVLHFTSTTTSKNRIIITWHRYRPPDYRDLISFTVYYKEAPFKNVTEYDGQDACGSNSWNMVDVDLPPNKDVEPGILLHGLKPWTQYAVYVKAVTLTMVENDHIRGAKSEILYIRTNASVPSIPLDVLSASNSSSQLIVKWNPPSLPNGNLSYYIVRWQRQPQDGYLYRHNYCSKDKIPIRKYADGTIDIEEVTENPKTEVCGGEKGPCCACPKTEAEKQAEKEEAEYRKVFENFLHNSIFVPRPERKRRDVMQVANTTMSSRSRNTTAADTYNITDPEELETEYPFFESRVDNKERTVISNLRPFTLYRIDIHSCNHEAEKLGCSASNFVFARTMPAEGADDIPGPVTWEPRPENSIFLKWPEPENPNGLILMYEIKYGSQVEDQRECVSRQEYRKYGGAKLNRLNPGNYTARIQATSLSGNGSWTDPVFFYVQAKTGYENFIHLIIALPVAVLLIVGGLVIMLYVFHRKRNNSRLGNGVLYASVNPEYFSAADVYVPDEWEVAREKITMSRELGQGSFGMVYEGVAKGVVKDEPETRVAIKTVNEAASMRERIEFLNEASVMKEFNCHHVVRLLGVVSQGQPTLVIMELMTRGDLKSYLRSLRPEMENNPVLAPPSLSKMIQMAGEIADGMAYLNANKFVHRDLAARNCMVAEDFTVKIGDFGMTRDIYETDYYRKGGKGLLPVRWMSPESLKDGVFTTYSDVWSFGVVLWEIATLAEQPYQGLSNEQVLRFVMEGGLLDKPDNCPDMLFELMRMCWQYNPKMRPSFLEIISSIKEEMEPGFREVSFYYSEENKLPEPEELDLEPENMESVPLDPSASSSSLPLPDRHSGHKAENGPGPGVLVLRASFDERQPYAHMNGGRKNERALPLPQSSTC
Protocol: as §1

AKT1 = AKT1 (Homo sapiens, UniProt P31749); test: Kinome profiling AKT1; conditions: read-out: Inhibitory activity AKT1; for inhibition at 0.1 µM: 100 nM
Sequence of AKT1 (P31749 whole entry): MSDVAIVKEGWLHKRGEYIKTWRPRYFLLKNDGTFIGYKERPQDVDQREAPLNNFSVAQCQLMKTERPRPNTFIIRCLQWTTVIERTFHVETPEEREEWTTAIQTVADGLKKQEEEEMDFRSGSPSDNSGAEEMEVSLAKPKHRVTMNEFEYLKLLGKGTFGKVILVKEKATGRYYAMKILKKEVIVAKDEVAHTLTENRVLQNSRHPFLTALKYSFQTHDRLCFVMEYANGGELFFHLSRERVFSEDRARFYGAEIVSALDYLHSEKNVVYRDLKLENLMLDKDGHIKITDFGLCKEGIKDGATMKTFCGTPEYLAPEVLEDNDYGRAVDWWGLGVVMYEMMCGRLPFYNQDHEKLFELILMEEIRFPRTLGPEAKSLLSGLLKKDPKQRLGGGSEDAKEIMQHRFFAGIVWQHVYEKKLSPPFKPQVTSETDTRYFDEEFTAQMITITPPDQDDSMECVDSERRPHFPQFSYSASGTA
Protocol: as §1

DYRK2 = target: T3, DYRK2 (Homo sapiens, UniProt Q92630); test: Kinome profiling DYRK2; conditions: read-out: Inhibitory activity DYRK2; for inhibition at 0.1 µM: 100 nM
T3 sequence (Q92630 1-601): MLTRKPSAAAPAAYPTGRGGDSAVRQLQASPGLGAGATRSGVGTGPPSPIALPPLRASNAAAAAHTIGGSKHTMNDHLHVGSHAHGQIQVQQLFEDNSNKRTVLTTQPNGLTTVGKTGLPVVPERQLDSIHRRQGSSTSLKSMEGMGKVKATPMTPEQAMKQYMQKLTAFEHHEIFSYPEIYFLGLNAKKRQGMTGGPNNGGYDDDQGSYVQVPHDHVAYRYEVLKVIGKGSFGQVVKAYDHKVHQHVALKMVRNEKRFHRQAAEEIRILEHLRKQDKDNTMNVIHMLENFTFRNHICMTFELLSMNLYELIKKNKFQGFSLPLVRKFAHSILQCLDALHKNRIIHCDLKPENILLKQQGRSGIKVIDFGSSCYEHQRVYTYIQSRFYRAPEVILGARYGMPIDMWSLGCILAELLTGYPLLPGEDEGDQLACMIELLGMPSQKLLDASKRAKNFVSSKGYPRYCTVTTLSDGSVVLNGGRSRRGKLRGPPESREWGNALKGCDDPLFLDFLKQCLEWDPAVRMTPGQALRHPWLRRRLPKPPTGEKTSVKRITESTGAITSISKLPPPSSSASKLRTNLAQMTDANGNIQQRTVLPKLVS
Protocol: as §1

In the case of `COc1cc(-c2cc(-c3ccc(N4CCNCC4)cc3)cnc2N)cc(OC)c1OC` [Compound 15, 5-(4-(piperazin-1-yl)phenyl)-3-(3,4,5-trimethoxyphenyl)pyridin-2-amine], the inhibition at 0.1 µM (TBK1) is reported as 6%, the inhibition at 1 µM (TBK1) is reported as 23% and the inhibition at 0.1 µM (NEK6) is reported as 0%. For the same compound, the inhibition at 1 µM (NEK6) was 4%, the inhibition at 0.1 µM (PKC-1) was 1% and the inhibition at 1 µM (PKC-1) was 1%. It also gave an inhibition at 0.1 µM (MAPKAPK3) of 1%, an inhibition at 1 µM (MAPKAPK3) of 1% and an inhibition at 0.1 µM (MSK1) of 0%. The inhibition at 1 µM (MSK1) was 0%, the inhibition at 0.1 µM (CAMK2δ) was 1% and the inhibition at 1 µM (CAMK2δ) was 3%. It also gave an inhibition at 0.1 µM (IGF1R) of 2%, an inhibition at 1 µM (IGF1R) of 4% and an inhibition at 0.1 µM (AKT1) of 0%. It also gave an inhibition at 1 µM (AKT1) of 2%, an inhibition at 0.1 µM (DYRK2) of 2% and an inhibition at 1 µM (DYRK2) of 0%.
For `COc1cc(-c2cc(-c3ccc(N4CCNCC4)cc3)cnc2C)cc(OC)c1OC` [Compound 10, 1-(4-(6-methyl-5-(3,4,5-trimethoxyphenyl)pyridin-3-yl)phenyl)piperazine], the inhibition at 0.1 µM (TBK1) was 1%, the inhibition at 1 µM (TBK1) was 4% and the inhibition at 0.1 µM (NEK6) was 1%. For the same compound, the inhibition at 1 µM (NEK6) was 0%, the inhibition at 0.1 µM (PKC-1) was 12% and the inhibition at 1 µM (PKC-1) was 3%. For the same compound, the inhibition at 0.1 µM (MAPKAPK3) was -1%, the inhibition at 1 µM (MAPKAPK3) was 0% and the inhibition at 0.1 µM (MSK1) was 1%. For the same compound, the inhibition at 1 µM (MSK1) was 0%, the inhibition at 0.1 µM (CAMK2δ) was 1% and the inhibition at 1 µM (CAMK2δ) was 1%. It also gave an inhibition at 0.1 µM (IGF1R) of 0%, an inhibition at 1 µM (IGF1R) of 0% and an inhibition at 0.1 µM (AKT1) of 0%. For the same compound, the inhibition at 1 µM (AKT1) was 0%, the inhibition at 0.1 µM (DYRK2) was 2% and the inhibition at 1 µM (DYRK2) was 1%.
